ChEMBL document CHEMBL4049438, “Discovery and Optimization of Isoquinoline Ethyl Ureas as Antibacterial Agents” (J Med Chem, 2017)
≈ marks a conversion by molar mass, not a printed value.

Tests used:
DNA gyrase = DNA gyrase (Staphylococcus aureus, UniProt P0A0K8+P20831)
Description: Inhibition of Staphylococcus aureus N-terminal His6-tagged DNA gyrase subunit GyrA/GyrB supercoiling activity expressed in Escherichia coli BL21 (DE3) using relaxed pBR322 DNA as substrate after 1 hr by agarose gel electrophoresis

[1] = AUC in mouse at 100 mg/kg, po after 24 hrs by LC-MS/MS analysis; assay type: ADME, organism-based; design: time < 24 hr, dose 100 mg/kg, route oral; details: in vivo
Staphylococcus aureus [2] = experiment: Antibacterial activity against methicillin-sensitive Staphylococcus aureus A-1178 infected in neutropenic mouse assessed as change in bacterial burden in thighs at 30 mg/kg, po administered every 2.75 hrs for 2 times measured 6.5 hrs post infection; assay type: functional
[3] = Protein binding to mouse plasma by rapid equilibrium dialysis method; assay type: ADME, cell-free; details: read-out: PPB (converted)
hERG (KCNH2) = hERG (KCNH2) (Homo sapiens, UniProt Q12809); experiment: Inhibition of human ERG expressed in CHO cells at 10 uM after 3 mins at -80 mV holding potential by Qpatch assay; assay type: cell-based; details: CHO cells expressing human ERG
Chain of hERG (KCNH2) (Q12809 whole entry): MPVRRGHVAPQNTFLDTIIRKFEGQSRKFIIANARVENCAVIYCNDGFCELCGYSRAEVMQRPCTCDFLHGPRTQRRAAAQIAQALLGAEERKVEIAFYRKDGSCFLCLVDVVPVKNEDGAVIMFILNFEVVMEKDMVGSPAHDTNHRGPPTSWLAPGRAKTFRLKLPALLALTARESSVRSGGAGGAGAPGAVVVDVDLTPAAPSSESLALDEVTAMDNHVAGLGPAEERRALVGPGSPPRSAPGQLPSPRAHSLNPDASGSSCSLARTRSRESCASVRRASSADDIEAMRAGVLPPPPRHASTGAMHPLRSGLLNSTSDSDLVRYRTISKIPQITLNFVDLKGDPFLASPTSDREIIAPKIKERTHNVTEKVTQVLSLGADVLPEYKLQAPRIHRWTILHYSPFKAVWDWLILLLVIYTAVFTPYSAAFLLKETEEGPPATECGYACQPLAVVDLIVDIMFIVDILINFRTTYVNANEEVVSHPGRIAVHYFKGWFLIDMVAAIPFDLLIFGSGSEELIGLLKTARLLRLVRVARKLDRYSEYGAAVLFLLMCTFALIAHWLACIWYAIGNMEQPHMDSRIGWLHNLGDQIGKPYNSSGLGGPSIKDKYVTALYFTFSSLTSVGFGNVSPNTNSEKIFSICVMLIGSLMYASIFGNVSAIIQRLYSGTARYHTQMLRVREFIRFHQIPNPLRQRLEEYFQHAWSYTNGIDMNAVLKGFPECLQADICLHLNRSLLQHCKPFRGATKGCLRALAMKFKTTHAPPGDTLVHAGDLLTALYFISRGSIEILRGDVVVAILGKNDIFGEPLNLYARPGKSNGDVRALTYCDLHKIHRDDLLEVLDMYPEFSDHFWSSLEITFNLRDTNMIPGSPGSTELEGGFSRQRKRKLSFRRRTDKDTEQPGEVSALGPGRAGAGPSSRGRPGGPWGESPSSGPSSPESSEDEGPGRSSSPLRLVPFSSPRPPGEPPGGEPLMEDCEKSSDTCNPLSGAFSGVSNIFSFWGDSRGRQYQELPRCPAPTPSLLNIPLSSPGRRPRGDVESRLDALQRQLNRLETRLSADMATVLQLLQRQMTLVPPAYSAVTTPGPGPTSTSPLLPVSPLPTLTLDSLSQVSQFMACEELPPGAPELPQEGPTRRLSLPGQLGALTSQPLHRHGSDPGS

[4] = Inhibition of Staphylococcus aureus topoisomerase 4 subunit ParC/ParE relaxation expressed in Escherichia coli BL21 (DE3) using supercoiled pBR322 DNA as substrate after 1 hr by agarose gel electrophoresis
Staphylococcus aureus [5] = experiment: Antibacterial activity against methicillin-sensitive Staphylococcus aureus A-1178 by broth microdilution method; assay type: functional
Mus musculus = experiment: Unbound AUC in mouse at 100 mg/kg, po after 24 hrs by LC-MS/MS analysis; assay type: ADME, organism-based; details: in vivo
Staphylococcus aureus [6] = experiment: Antibacterial activity against Staphylococcus aureus ATCC 29213 by broth microdilution method; assay type: functional
[7] = Octanol-phosphate buffer partition coefficient, logD of compound at pH 7.4 by LC/UV analysis; assay type: physicochemical
Escherichia coli [8] = experiment: Antibacterial activity against TolC deficient Escherichia coli by broth microdilution method; assay type: functional
Moraxella catarrhalis = experiment: Antibacterial activity against Moraxella catarrhalis A-894 by broth microdilution method; assay type: functional
[9] = Inhibition of Escherichia coli N-terminal His6-tagged DNA gyrase subunit GyrA/GyrB supercoiling activity expressed in Escherichia coli BL21 (DE3) using relaxed pBR322 DNA as substrate after 1 hr by agarose gel electrophoresis
Enterococcus faecium = experiment: Antibacterial activity against vancomycin/fluoroquinolone-resistant Enterococcus faecium A-949 harboring topoisomerase gyrA E88K mutant/parC S80R mutant by broth microdilution method; assay type: functional
[10] = Inhibition of Streptococcus pneumoniae DNA gyrase subunit GyrA/GyrB supercoiling activity expressed in Escherichia coli BL21 (DE3) using relaxed pBR322 DNA as substrate after 1 hr mins by agarose gel electrophoresis
Escherichia coli [11] = experiment: Selectivity ratio of IC50 for Escherichia coli DNA topoisomerase 4 subunit ParC/ParE relaxation to IC50 for Escherichia coli N-terminal His6-tagged DNA gyrase subunit GyrA/GyrB supercoiling activity
[12] = Inhibition of Haemophilus influenzae DNA gyrase subunit GyrA/GyrB supercoiling activity expressed in Escherichia coli BL21 (DE3) using relaxed pBR322 DNA as substrate after 1 hr mins by agarose gel electrophoresis
Streptococcus pneumoniae [13] = experiment: Antibacterial activity against Streptococcus pneumoniae ATCC 49619 by broth microdilution method; assay type: functional
Haemophilus influenzae = experiment: Antibacterial activity against Haemophilus influenzae A-921 by broth microdilution method; assay type: functional
[14] = Inhibition of Haemophilus influenzae DNA topoisomerase 4 subunit ParC/ParE relaxation expressed in Escherichia coli BL21 (DE3) using supercoiled pBR322 DNA as substrate after 1 hr mins by agarose gel electrophoresis
[15] = Inhibition of fluoroquinolone-resistant Staphylococcus aureus clinical isolate DNA gyrase subunit GyrB/GyrA S84L mutant supercoiling activity using relaxed pBR322 DNA as substrate after 1 hr by agarose gel electrophoresis
[16] = Inhibition of Escherichia coli DNA topoisomerase 4 subunit ParC/ParE relaxation expressed in Escherichia coli BL21 (DE3) using supercoiled pBR322 DNA as substrate after 1 hr by agarose gel electrophoresis
[17] = molecular target: DNA topoisomerase 2-alpha (Homo sapiens, UniProt P11388); experiment: Inhibition of human DNA topoisomerase 2-alpha
Chain of DNA topoisomerase 2-alpha (P11388 whole entry): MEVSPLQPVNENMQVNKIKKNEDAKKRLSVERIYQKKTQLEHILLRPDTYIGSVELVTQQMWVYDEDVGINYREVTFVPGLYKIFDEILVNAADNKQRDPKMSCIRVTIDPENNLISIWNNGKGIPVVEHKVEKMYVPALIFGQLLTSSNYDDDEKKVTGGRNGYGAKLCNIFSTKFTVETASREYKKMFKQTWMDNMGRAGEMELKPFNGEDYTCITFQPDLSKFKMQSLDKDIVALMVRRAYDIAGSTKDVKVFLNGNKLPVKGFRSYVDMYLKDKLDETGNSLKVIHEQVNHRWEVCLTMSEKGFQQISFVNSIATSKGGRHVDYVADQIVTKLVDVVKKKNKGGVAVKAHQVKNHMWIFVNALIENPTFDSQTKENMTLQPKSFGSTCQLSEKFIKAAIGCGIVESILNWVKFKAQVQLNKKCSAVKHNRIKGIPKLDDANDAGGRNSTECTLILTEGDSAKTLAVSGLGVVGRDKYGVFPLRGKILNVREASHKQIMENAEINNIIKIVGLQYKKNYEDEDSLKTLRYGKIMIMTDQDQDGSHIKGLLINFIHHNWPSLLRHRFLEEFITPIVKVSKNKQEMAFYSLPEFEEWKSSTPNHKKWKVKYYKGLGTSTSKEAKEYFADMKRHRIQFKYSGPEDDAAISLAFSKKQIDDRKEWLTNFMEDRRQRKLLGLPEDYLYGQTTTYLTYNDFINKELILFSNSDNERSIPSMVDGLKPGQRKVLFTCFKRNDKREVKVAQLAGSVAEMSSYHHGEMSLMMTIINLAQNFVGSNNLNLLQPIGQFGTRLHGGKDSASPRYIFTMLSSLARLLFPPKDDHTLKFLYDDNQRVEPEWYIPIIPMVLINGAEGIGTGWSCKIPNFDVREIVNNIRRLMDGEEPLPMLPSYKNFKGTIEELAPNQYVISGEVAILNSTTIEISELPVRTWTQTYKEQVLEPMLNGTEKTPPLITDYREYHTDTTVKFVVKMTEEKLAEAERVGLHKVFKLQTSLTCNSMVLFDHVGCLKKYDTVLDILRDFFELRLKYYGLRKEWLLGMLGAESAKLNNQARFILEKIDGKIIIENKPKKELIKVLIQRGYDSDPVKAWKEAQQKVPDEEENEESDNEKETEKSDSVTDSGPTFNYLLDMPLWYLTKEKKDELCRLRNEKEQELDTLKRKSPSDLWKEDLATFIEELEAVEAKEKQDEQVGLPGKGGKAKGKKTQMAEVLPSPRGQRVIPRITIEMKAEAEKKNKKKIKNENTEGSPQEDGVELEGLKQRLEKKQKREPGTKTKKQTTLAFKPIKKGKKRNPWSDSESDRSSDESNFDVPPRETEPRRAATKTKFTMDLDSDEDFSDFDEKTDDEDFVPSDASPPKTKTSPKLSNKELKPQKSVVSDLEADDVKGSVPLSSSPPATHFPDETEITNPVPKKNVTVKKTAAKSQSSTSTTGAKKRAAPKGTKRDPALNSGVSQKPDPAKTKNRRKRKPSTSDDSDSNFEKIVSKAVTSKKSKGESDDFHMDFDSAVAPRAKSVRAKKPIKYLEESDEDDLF

Enterococcus faecalis = experiment: Antibacterial activity against Enterococcus faecalis ATCC 29212 by broth microdilution method; assay type: functional
[18] = Inhibition of Streptococcus pneumoniae DNA topoisomerase 4 subunit ParC/ParE relaxation expressed in Escherichia coli BL21 (DE3) using supercoiled pBR322 DNA as substrate after 1 hr mins by agarose gel electrophoresis
Streptococcus pneumoniae [19] = experiment: Antibacterial activity against fluoroquinolone-resistant Streptococcus pneumoniae A-70 harboring topoisomerase gyrA S81F mutant/parc S79F mutant/parE I440V mutant by broth microdilution method; assay type: functional
Streptococcus pyogenes = experiment: Antibacterial activity against Streptococcus pyogenes ATCC 19615 by broth microdilution method; assay type: functional
Staphylococcus aureus [20] = experiment: Selectivity ratio of IC50 for Staphylococcus aureus topoisomerase 4 subunit ParC/ParE relaxation to IC50 for Staphylococcus aureus N-terminal His6-tagged DNA gyrase subunit GyrA/GyrB supercoiling activity
Escherichia coli [21] = experiment: Antibacterial activity against Escherichia coli ATCC 25922 by broth microdilution method; assay type: functional
Staphylococcus aureus [22] = experiment: Antibacterial activity against methicillin/fluoroquinolone-resistant Staphylococcus aureus A-798 harboring topoisomerase gyrA S84L mutant/grlA S80F/Glu84V mutant by broth microdilution method; assay type: functional
[23] = Dissociation constant, pKa of the compound by pH metric assay; assay type: physicochemical

| IC50 (DNA gyrase) [nM] | AUC at 24 h [1] [ng·h/mL] | fraction unbound [3] | IC50 [4] [nM] | MIC (Staphylococcus aureus [5]) [µg/mL] | fAUC (Mus musculus) [ng·h/mL] | MIC (Staphylococcus aureus [6]) [µg/mL] | logD [7] | Structure (SMILES) | Activity (Staphylococcus aureus [2]) [deltalog10CFU] | inhibition at 0.05 h, 10 µM (hERG (KCNH2)) [%] | further results |
| --- | --- | --- | --- | --- | --- | --- | --- | --- | --- | --- | --- |
| 8 | 14000 | 0.045 | 2000 | 0.125 (≈ 0.286 µM) | 630 | 0.125 (≈ 0.286 µM) | 3 | CCNC(=O)Nc1cc2c(-c3ccnc(C)c3)ccc(CNC(=O)OCCOC)c2cn1 | -1.3 | 20 |  |
| 8 | 9200 | 0.052 | 500 | 0.5 (≈ 1.08 µM) | 480 | 0.5 (≈ 1.08 µM) | 3.1 | CCNC(=O)Nc1cc2c(-c3ccnc(C)c3)ccc(COC(=O)N3CCN(C)CC3)c2cn1 | -0.3 | 15 | pKa [23]: 7 |

| Structure (SMILES) | IC50 (DNA gyrase) [nM] | AUC at 24 h [1] [ng·h/mL] | fraction unbound [3] | IC50 [4] [nM] | MIC (Staphylococcus aureus [5]) [µg/mL] | fAUC (Mus musculus) [ng·h/mL] | MIC (Staphylococcus aureus [6]) [µg/mL] | logD [7] | Activity (Staphylococcus aureus [2]) [deltalog10CFU] | inhibition at 0.05 h, 10 µM (hERG (KCNH2)) [%] | further results |
| --- | --- | --- | --- | --- | --- | --- | --- | --- | --- | --- | --- |
| CCNC(=O)Nc1cc2c(-c3ccnc(C)c3)ccc(Nc3ccc(C)nc3)c2cn1 | 8 |  |  | 125 |  |  | ≤ 0.03 |  | -0.2 |  | MIC (Escherichia coli [8]): 0.5 µg/mL (≈ 1.21 µM); MIC (Moraxella catarrhalis): 0.25 µg/mL (≈ 0.606 µM); IC50 [9]: 30 nM; MIC (Enterococcus faecium): 0.06 µg/mL (≈ 0.145 µM); IC50 [10]: 125 nM; Ratio IC50 (Escherichia coli [11]): 60; IC50 [12]: 30 nM; MIC (Streptococcus pneumoniae [13]): 0.125 µg/mL (≈ 0.303 µM); MIC (Haemophilus influenzae): 0.25 µg/mL (≈ 0.606 µM); IC50 [14]: 125 nM; IC50 [15]: < 4 nM; IC50 [16]: 2000 nM; IC50 [17]: > 256000 nM; MIC (Enterococcus faecalis): ≤ 0.03 µg/mL; IC50 [18]: 30 nM; MIC (Streptococcus pneumoniae [19]): 0.125 µg/mL (≈ 0.303 µM); MIC (Streptococcus pyogenes): 0.125 µg/mL (≈ 0.303 µM); Ratio IC50 (Staphylococcus aureus [20]): 16; MIC (Escherichia coli [21]): > 16 µg/mL; MIC (Staphylococcus aureus [22]): ≤ 0.03 µg/mL |
